As usually defined, the IC50 is the concentration that gives 50% inhibition.

Molecules are shown by their SMILES. Some results are limits rather than exact numbers.

This note sets out measurements from patent publication US20030229053A1, “Compounds and methods for the treatment or prevention of flavivirus infections” (Shire BioChem Inc., priority 2001, published 2003).

Chain of HCV NS5B RNA-dependent RNA polymerase (P26663 2420-3010 limits assumed): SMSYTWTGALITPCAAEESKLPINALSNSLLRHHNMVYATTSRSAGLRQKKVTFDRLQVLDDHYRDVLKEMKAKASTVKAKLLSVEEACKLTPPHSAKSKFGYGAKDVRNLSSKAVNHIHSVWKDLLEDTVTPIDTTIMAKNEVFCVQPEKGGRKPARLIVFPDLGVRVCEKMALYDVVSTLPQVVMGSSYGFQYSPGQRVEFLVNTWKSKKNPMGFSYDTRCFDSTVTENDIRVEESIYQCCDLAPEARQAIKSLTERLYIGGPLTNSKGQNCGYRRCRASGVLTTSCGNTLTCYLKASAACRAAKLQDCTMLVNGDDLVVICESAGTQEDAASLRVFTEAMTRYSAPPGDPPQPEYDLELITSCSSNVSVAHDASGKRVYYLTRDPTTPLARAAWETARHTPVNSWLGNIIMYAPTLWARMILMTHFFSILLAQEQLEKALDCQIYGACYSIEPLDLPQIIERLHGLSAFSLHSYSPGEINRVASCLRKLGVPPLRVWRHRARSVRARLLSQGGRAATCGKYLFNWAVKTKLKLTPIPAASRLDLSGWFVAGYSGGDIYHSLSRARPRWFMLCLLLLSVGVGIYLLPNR

The target in the test is HCV NS5B RNA-dependent RNA polymerase (Hepatitis C virus genotype 1b, UniProt P26663). The test is described as follows: In vitro RNA-dependent RNA polymerase assay (Assay 1), polyA/oligo dT, TCA precipitation. As to conditions: polyA/oligo dT template/primer, 200 ng NS5B, 2 h at 22° C.; read-out: RNA pol Assay 1 IC50 (μm). The class given is biochemical. The procedure:
Purification of Recombinant NS5B Using Fast Protein Liquid Chromatography (FPLC):
Soluble NS5B protein in the S3 fraction was diluted to lower the NaCl concentration to 300 mM, then it incubated batchwise with DEAE sepharose beads (Amersham-Pharmacia) for 2 hrs at 4° C., as described by Behrens et al. (1996). Unbound material was cleared by centrifugation for 15 min at 4° C., at 25,000 rpm using a SW41 rotor (Beckman). The supernatant was further diluted to lower the NaCl concentration to 200 mM and subsequently loaded, with a flow rate of 1 ml/min, on a 5 ml HiTrap® heparin column (Amersham-Pharmacia) connected to an FPLC® system (Amersham-Pharmacia). Bound proteins were eluted in 1 ml fractions, using a continuous NaCl gradient of 0.2 to 1 M, over a 25 ml volume. NS5B-containing fractions were identified by sodium dodecyl sulfate polyacrylamide gel electrophoresis (SDS-PAGE), followed by western blotting using the anti-NS5B antiserum at a dilution of 1:2000. Positive fractions were pooled and the elution buffer was exchanged against a 50 mM NaPO4 pH 7.0, 20% glycerol, 0.5% triton X-100 and 10 mM DTT, using a PD-10 column (Amersham-Pharmacia). The sample was then loaded onto a 1 ml HiTrap® SP column (Amersham-Pharmacia), with a flow rate of 0.1 ml/min. Bound proteins were eluted using a continuous 0 to 1 M NaCl gradient over a 15 ml volume. Eluted fractions were analyzed by SDS-PAGE and western blotting. Alternatively, proteins were visualized, following SDS-PAGE, by silver staining using the Silver Stain Plus kit (BioRad) as described by the manufacturer. […]
In vitro RNA-dependent RNA Polymerase Assays Used to Evaluate Biaryl Analogues (Assay 1):
RdRp assays were conducted using the homopolymeric template/primer polyA/oligo dT. All RdRp reactions were performed in a total volume of 50 μl, and in a basic buffer consisting of 20 mM Tris-HCl pH 7.5, 1 mM DTT, 50 mM NaCl, 5 mM MgCl2, 0.5 μCi […] (3000 Ci/mmol), 15 μM cold UTP and 20 U RNasin (Promega). Standard HCV RdRp reactions contained 200 ng of purified NS5B protein. PolyA RNAs (Amersham-Pharmacia) was resuspended at 400 ng/μl. The primer oligodT15 (Canadian life technologies) was diluted to a concentration of […] (7.6 ng/μl). Templates and primers were mixed volume to volume, denatured at 95° C. for 5 min and annealed at 37° C. for 10 min. Following a two hour incubation at 22° C., reactions were stopped by the addition of 100 μg of sonicated salmon sperm DNA (Life Technologies) and 1 ml of 10% trichloroacetic acid-0.5% tetrasodium pyrophosphate (TCA-PPi). Nucleic acids were precipitated at 4° C. for 30 min after which samples were filtered on GF/C glass microfiber filters (Millipore). Membranes were subsequently washed with 25 ml of a 1% TCA-0.1% PPi solution, then air dried. Incorporated radioactivity was quantified using a liquid scintillation counter (1450-Microbeta, Wallac). Results are shown in Table 1, in the column indicated as Assay 1.
Turning to `O=C(O)[C@H](Cc1ccccc1)N(Cc1ccc(-c2nccs2)cc1)C(=O)c1ccc(Cl)cc1Cl` [compound #2, (2s)-2-[(2,4-Dichloro-benzoyl)-(4-thiazol-2-yl-benzyl)-amino]-3-phenyl-propionic acid], the IC50 was under 5 µM.

Take `O=C(O)[C@H](Cc1ccccc1)N(Cc1ccc(-c2ccccc2C(F)(F)F)o1)C(=O)c1ccc(Cl)cc1Cl` [compound #120, (2s)-2-{(2,4-Dichloro-benzoyl)-[5-(2-trifluoromethyl-phenyl)-furan-2-ylmethyl]-amino}-3-phenyl-propionic acid]: the IC50 was under 5 µM.

`O=C(O)[C@H](Cc1ccccc1)N(Cc1ccc(-c2cccs2)s1)C(=O)c1ccc(Cl)cc1Cl` [compound #127, (2s)-2-[[2,2′]Bithiophenyl-5-ylmethyl-(2,4-dichloro-benzoyl)-amino]-3-phenyl-propionic acid]: the IC50 is under 5 µM.

In the case of `Cc1onc(-c2ccccc2Cl)c1C(=O)c1cccc(CN(C(=O)c2ccc(Cl)cc2Cl)[C@@H](Cc2ccccc2)C(=O)O)c1` [compound #43, (2s)-2-[{3-[3-(2-Chloro-phenyl)-5-methyl-isoxazole-4-carbonyl]-benzyl}-(2,4-dichloro-benzoyl)-amino]-3-phenyl-propionic acid], the IC50 is under 5 µM.

On to `O=C(O)c1ccccc1-c1ccc(CN(C(=O)c2ccc(Cl)cc2Cl)[C@@H](Cc2ccccc2)C(=O)O)o1` [compound #73, (2s)-2-(5-{[(1-Carboxy-2-phenyl-ethyl)-(2,4-dichloro-benzoyl)-amino]-methyl}-furan-2-yl)-benzoic acid], for which the IC50 is under 5 µM.

`O=C(c1cccc(CN(C(=O)c2ccc(Cl)cc2Cl)[C@@H](Cc2ccccc2)C(=O)O)c1)c1ccc(F)cc1F` [compound #42, (2s)-2-{(2,4-Dichloro-benzoyl)-[3-(2,4-difluoro-benzoyl)-benzyl]-amino}-3-phenyl-propionic acid]: the IC50 was under 5 µM.

On to `COc1cc(C)c(S(=O)(=O)N(Cc2ccccc2Br)[C@@H](Cc2ccccc2)C(=O)O)c(C)c1C` [compound #24, (2s)-2-[(2-Bromo-benzyl)-(4-methoxy-2,3,6-trimethyl-benzenesulfonyl)-amino]-3-phenyl-propionic acid], for which the IC50 lay within 5 to 20 µM.

In the case of `O=C(O)[C@H](Cc1ccccc1)N(Cc1ccc(-c2cc3ccccc3o2)cc1)c1ccc(Cl)cc1Cl` [compound #38, (2s)-2-[(4-Benzofuran-2-yl-benzyl)-(2,4-dichloro-phenyl)-amino]-3-phenyl-propionic acid], the IC50 was under 5 µM.

On to `O=C(O)[C@H](Cc1ccccc1)N(Cc1cccc(-c2cc3ccccc3o2)c1)C(=O)c1ccc(Cl)cc1Cl` [compound #11, (2s)-2-[(3-Benzofuran-2-yl-benzyl)-(2,4-dichloro-benzoyl)-amino]-3-phenyl-propionic acid], for which the IC50 fell in the range of 5 to 20 µM.

`O=C(O)[C@H](Cc1ccccc1)N(Cc1ccc(-c2ccncc2)s1)C(=O)c1ccc(Cl)cc1Cl` [compound #138, (2s)-2-[(2,4-Dichloro-benzoyl)-(5-pyridin-4-yl-thiophen-2-ylmethyl)-amino]-3-phenyl-propionic acid]: the IC50 is under 5 µM.

Regarding `O=C(O)[C@H](Cc1ccccc1)N(Cc1ccc(-c2cccc(C(F)(F)F)c2)o1)C(=O)c1ccc(Cl)cc1Cl` [compound #56, (2s)-2-{(2,4-Dichloro-benzoyl)-[5-(3-trifluoromethyl-phenyl)-furan-2-ylmethyl]-amino}-3-phenyl-propionic acid], the IC50 was under 5 µM.

`CCOC(=O)c1ccccc1-c1ccc(CN(C(=O)c2ccc(Cl)cc2Cl)[C@@H](Cc2ccccc2)C(=O)O)s1` [compound #121, (2s)-2-(5-{[(1s-1-Carboxy-2-phenyl-ethyl)-(2,4-dichloro-benzoyl)-amino]-methyl}-thiophen-2-yl)-benzoic acid ethyl ester]: the IC50 is under 5 µM.

For the molecule `O=C(O)[C@H](Cc1ccccc1)N(Cc1ccc(Br)o1)C(=O)c1ccc(Cl)cc1I` [compound #71, (2s)-2-[(5-Bromo-furan-2-ylmethyl)-(4-chloro-2-iodo-benzoyl)-amino]-3-phenyl-propionic acid], the IC50 is under 5 µM.

For the molecule `COc1cc(C)c(S(=O)(=O)N(Cc2c(C(=O)c3ccc(Cl)cc3)oc3ccccc23)[C@@H](Cc2ccccc2)C(=O)O)c(C)c1C` [compound #105, (2s)-2-[[2-(4-Chloro-benzoyl)-benzofuran-3-ylmethyl]-(4-methoxy-2,3,6-trimethyl-benzenesulfonyl)-amino]-3-phenyl-propionic acid], the IC50 fell in the range of 5 to 20 µM.

On to `O=C(O)[C@H](Cc1ccccc1)N(Cc1cc(-c2ccc(Cl)cc2Cl)cs1)C(=O)c1ccc(Cl)cc1Cl` [compound #90, (2s) -2-{(2,4-Dichloro-benzoyl)-[4-(2,4-dichloro-phenyl)-thiophen-2-ylmethyl]-amino}-3-phenyl-propionic acid], for which the IC50 was under 5 µM.

For the molecule `C=CCN(C(=O)c1ccc(Cl)cc1Cl)[C@@H](Cc1ccccc1)C(=O)O` [compound #109, (2s)-2-[Allyl-(2,4-dichloro-benzoyl)-amino]-3-phenyl-propionic acid], the IC50 fell in the range of 5 to 20 µM.

Take `CCOC(=O)CC(c1cccs1)N(Cc1ccc(I)cc1)S(=O)(=O)c1c(C)cc(OC)c(C)c1C` (stereo not shown) [compound #8, 3-[(4-Iodo-benzyl)-(4-methoxy-2,3,6-trimethyl-benzenesulfonyl)-amino]-3-thiophen-2-yl-propionic acid ethyl ester]: the IC50 was 5 to 20 µM.

Consider `O=C(O)[C@H](Cc1ccccc1)N(Cc1ccc(-c2cc(F)cc(F)c2)o1)C(=O)c1ccc(Cl)cc1Cl` [compound #79, (2s)-2-{(2,4-Dichloro-benzoyl)-[5-(3,5-difluoro-phenyl)-furan-2-ylmethyl]-amino}-3-phenyl-propionic acid], for which the IC50 was under 5 µM.

For the molecule `O=C(O)[C@H](Cc1ccccc1)N(Cc1ccc2ccccc2c1)C(=O)c1ccc(Cl)cc1Cl` [compound #39, (2s)-2-[(2,4-Dichloro-benzoyl)-naphthalen-2-ylmethyl-amino]-3-phenyl-propionic acid], the IC50 is under 5 µM.

On to `CC(C)=CCN(C(=O)c1ccc(Cl)cc1Cl)[C@@H](Cc1ccccc1)C(=O)O` [compound #115, (2s)-2-[(2,4-Dichloro-benzoyl)-(3-methyl-but-2-enyl)-amino]-3-phenyl-propionic acid], for which the IC50 lay in the range of 5 to 20 µM.

Turning to `COC(=O)c1ccc(-c2ccc(CN([C@@H](Cc3ccccc3)C(=O)O)S(=O)(=O)c3c(C)cc(OC)c(C)c3C)cc2)o1` [compound #18, (2s)-5-(4-{[(1s-1-Carboxy-2-phenyl-ethyl)-(4-methoxy-2,3,6-trimethyl-benzenesulfonyl)-amino]-methyl}-phenyl)-furan-2-carboxylic acid methyl ester], the IC50 is over 20 µM.

Take `C=C(Br)CN(C(=O)c1ccc(Cl)cc1Cl)C(Cc1ccccc1)C(=O)O` (stereo not shown) [compound #116, 2-[(2-Bromo-allyl)-(2,4-dichloro-benzoyl)-amino]-3-phenyl-propionic acid]: the IC50 lay in the range of 5 to 20 µM.

`O=C(O)[C@H](Cc1ccccc1)N(CC#Cc1cc2ccccc2o1)C(=O)c1ccc(Cl)cc1Cl` [compound #113, (2s)-2-[(3-Benzofuran-2-yl-prop-2-ynyl)-(2,4-dichloro-benzoyl)-amino]-3-phenyl-propionic acid]: the IC50 was under 5 µM.

`O=C(O)[C@H](Cc1ccccc1)N(Cc1sc(Br)cc1Br)C(=O)c1ccc(Cl)cc1I` [compound #124, (2s)-2-[(4-Chloro-2-iodo-benzoyl)-(3,5-dibromo-thiophen-2-ylmethyl)-amino]-3-phenyl-propionic acid]: the IC50 was under 5 µM.

As for `O=C(O)[C@H](Cc1cn(Cc2ccccc2)cn1)N(Cc1cccc(Br)c1)C(=O)c1ccc(Cl)cc1Cl` [compound #21, (2s)-3-(1-Benzyl-1h-imidazol-4-yl)-2-[(3-bromo-benzyl)-(2,4-dichloro-benzoyl)-amino]-propionic acid], the IC50 was 5 to 20 µM.
